Experimental findings from patent publication US7332495B2 (priority 2002, dated 2008) are described below.

Where a name gives a salt, the structure may show the parent alone.

Data set [1] relates to Kunming mice. Briefly: Mice writhing model (acetic acid). It is filed as in vivo. To be noted: i.p. 20 mg/Kg, acetic acid 0.7% i.p. after 30 minutes, writhes in 5 minutes; for inhibition in vivo at 20 mg/kg: Mus musculus, ip, read-out: Analgesia (inhibition ratio of writhing). Here is the method:
Kunming mice were used, with a male-female ratio of 50-50%. The test compound is administered i.p. (20 mg/Kg body weight) to the test groups, and physiological saline is administered P.O. (20 ml/Kg body weight) to the control group. After 30 minutes, acetic acid (0.7%, […] i.p.) was injected and the number of writhes was observed during a 5-minute period after acetic acid administration. The inhibition ratio of the writhing threshold was calculated. The alternating current tube is used to record the spontaneous activities for measuring sedation.
Two species of animals (mice and rats) and four types of pain testing models (i.p. 0.7% acetic acid, s.c. 5% formalin, hot plate 55° C., focused radiant heat) were used.
Background: Writhing tests count abdominal constrictions after an irritant is injected.

The test system of data set [2] is Kunming mice. Briefly: Sedation: spontaneous activities recorded with alternating current tube. It is filed as in vivo. The settings on record: i.p. 20 mg/Kg, spontaneous activities; for inhibition in vivo at 20 mg/kg: Mus musculus, ip. Here is the method:
Kunming mice were used, with a male-female ratio of 50-50%. […] After 30 minutes, acetic acid (0.7%, […] i.p.) was injected and the number of writhes was observed during a 5-minute period after acetic acid administration. The inhibition ratio of the writhing threshold was calculated. The alternating current tube is used to record the spontaneous activities for measuring sedation.

A word on the melting point: it is the temperature, or range, at which the solid turns liquid. On to `CC(C(=O)c1ccccc1)N1CCN(Cc2ccc(Cl)cc2)CC1` (stereo not shown) (as salt: hydrochloride), for which the melting point was in the range of 260 to 262 °C. Same read-out and setting: with `COc1ccc2cc(C(=O)C(C)N3CCN(Cc4ccccc4)CC3)ccc2c1Cl` (stereo not shown) (as salt: hydrochloride) the figure was 252 to 253 °C (dec.); with `COc1ccc2cc(C(=O)C(C)N3CCN(Cc4ccc5c(c4)OCO5)CC3)ccc2c1Cl` (stereo not shown) (as salt: hydrochloride), 230 to 232 °C.

For the compound `COc1ccc2cc(C(=O)C(C)N3CCN(Cc4ccc(N)cc4)CC3)ccc2c1Cl` (stereo not shown) (as salt: hydrochloride), the melting point was 206 to 208 °C. The same measure, in the same setting: with `COc1cc(CN2CCN(C(C)C(=O)c3ccc4c(Cl)c(OC)ccc4c3)CC2)cc(OC)c1OC` (stereo not shown) (as salt: hydrochloride) the figure was 219 to 222 °C; with `O=C(CN1CCN(Cc2ccccc2)CC1)c1ccccc1` (as salt: hydrochloride) [IV-1, N^1-benzyl-N^4-phenacyl piperazine], 238 to 239 °C; with `O=C(CN1CCN(Cc2ccc(Cl)cc2)CC1)c1ccccc1` (as salt: hydrochloride) [IV-3, N^1-(4-chlorobenzyl)-N^4-phenacyl piperazine], 256 to 258 °C. Same read-out and setting: in the case of `O=C(CN1CCN(Cc2ccc([N+](=O)[O-])cc2)CC1)c1ccccc1` (as salt: hydrochloride) [IV-4, N^1-(4-nitrobenzyl)-N^4-phenacyl piperazine] it was 236 to 238 °C. As for `O=C(CN1CCN(Cc2ccccc2)CC1)c1ccccc1` [IV-1, N^1-benzyl-N^4-phenacyl piperazine], the results for the inhibition in vivo at 20 mg/kg in data set [1] and in data set [2] were 68.2% and 65.6%, respectively. As for `O=C(CN1CCN(Cc2ccc(Cl)cc2)CC1)c1ccccc1` [IV-3, N^1-(4-chlorobenzyl)-N^4-phenacyl piperazine], the inhibition in vivo at 20 mg/kg in data set [1] is 56.6%; in data set [2], 70.8%. For `O=C(CN1CCN(Cc2ccc([N+](=O)[O-])cc2)CC1)c1ccccc1` [IV-4, N^1-(4-nitrobenzyl)-N^4-phenacyl piperazine], in that order: 93.2% and 39.6%. Consider `CCOC(=O)C(c1ccccc1)N1CCN(CC(=O)c2ccccc2)CC1` (stereo not shown) [IV-5, N^1-[(1-ethoxy-oxo-methyl)benzyl]-N^4-phenacyl piperazine], for which the “Analgesia (inhibition ratio of writhing)” value in data set [1] came to 14%. The compound also had a Sedation in data set [2] of 44%. For the compound `O=C(CN1CCN(Cc2ccccc2)CC1)c1ccc(Cl)cc1` [IV-6, N^1-benzyl-N^4-(4-chlorophenacyl)piperazine], the inhibition in vivo at 20 mg/kg in data set [1] turned out to be 43%; in data set [2] it was 73%. For `O=C(CN1CCN(Cc2ccccc2)CC1)c1ccc2ccccc2c1` [IV-7, N^1-benzyl-N^4-(2-naphthoylmethyl)piperazine], in that order: 25% and 43%.

With `COc1ccc(C(=O)CN2CCN(Cc3ccccc3)CC2)cc1` [IV-8, N^1-benzyl-N^4-(4-methoxyphenacyl)piperazine], the inhibition in vivo at 20 mg/kg in data set [1] came to 39%; in data set [2] it was 64%.

`O=C(CN1CCN(Cc2ccccc2)CC1)c1ccc([N+](=O)[O-])cc1` [IV-9, N^1-benzyl-N^4-(4-nitrophenacyl)piperazine]: the inhibition in vivo at 20 mg/kg in data set [1] amounted to 74%; in data set [2], 32%.

For the compound `O=C(CN1CCN(Cc2cccnc2)CC1)c1ccccc1` [IV-11, N^1-(3-pyridylmethyl)-N^4-phenacyl piperazine], the figures for the inhibition in vivo at 20 mg/kg in data set [1] and in data set [2] were 86% and 91%, respectively.

In the case of `CC(C(=O)c1ccccc1)N1CCN(Cc2ccc(N)cc2)CC1` (stereo not shown) [IV-13, N^1-(4-aminobenzyl)-N^4-(1-benzoylethyl)piperazine], the inhibition in vivo at 20 mg/kg in data set [1] is 100%; in data set [2], 86%. For `COc1ccc(OC)c(CN2CCN(CC(=O)c3ccccc3)CC2)c1` [IV-15, N^1-(2,5-dimethoxybenzyl)-N^4-phenacyl piperazine], in that order: 80% and 93%. For `Nc1ccc(C(=O)CN2CCN(Cc3ccccc3)CC2)cc1` [IV-16, N^1-benzyl-N^4-(4-aminophenacyl)piperazine], in that order: 63% and 51%. For `O=C(CCN1CCN(Cc2ccccc2)CC1)c1ccccc1` [IV-17, N^1-benzyl-N^4-(2-benzoylethyl)piperazine], in that order: 45% and 75%. With `CC(=O)Nc1ccc(C(=O)CN2CCN(Cc3ccc([N+](=O)[O-])cc3)CC2)cc1` [IV-18, N^1-(4-nitrobenzyl)-N^4-[(4-acetamido)phenacyl]piperazine], the inhibition in vivo at 20 mg/kg is 64% in data set [1] and 65% in data set [2]. For `O=C(CN1CCN(Cc2ccc(F)cc2)CC1)c1ccc(Cl)cc1` [IV-20, N^1-(4-fluorobenzyl)-N^4-(4-chlorophenacyl)piperazine], in that order: 45% and 60%.

On to `COc1ccc(C(=O)CN2CCN(CCC(O)c3ccccc3)CC2)cc1` (stereo not shown) [IV-22, N^1-(3-phenylpropyl-3-ol)-N^4-(4-methoxyphenacyl)piperazine], for which, in data set [1], the “Analgesia (inhibition ratio of writhing)” value is 100%. The compound further had a Sedation in data set [2] of 84%. For `COc1ccc([N+](=O)[O-])cc1CN1CCN(CC(=O)c2ccccc2)CC1` [IV-23, N^1-(2-methoxy-5-nitrobenzyl)-N^4-phenacyl piperazine], the inhibition in vivo at 20 mg/kg in data set [1] was found to be 87%; in data set [2], 96%. For `CC(c1ccc(F)cc1)N1CCN(CC(=O)c2ccccc2)CC1` (stereo not shown) [IV-24, N^1-[1-(4-fluorophenyl)ethyl]-N^4-phenacyl piperazine], in that order: 64% and 47%.

As for `COc1ccc(CN2CCN(C(C)C(=O)c3ccc4c(Cl)c(OC)ccc4c3)CC2)cc1` (stereo not shown) [IV-31, N^1-(4-methoxybenzyl)-N^4-[1-(5-chloro-6-methoxy-2-naphthoyl)ethyl]piperazine], the inhibition in vivo at 20 mg/kg in data set [1] came out at 45%; in data set [2], 7%. For `C[C@H](c1ccccc1)N1CCN(CC(=O)c2ccccc2)CC1` [IV-38, N^1—(R-1-phenylethyl)-N^4-phenacyl piperazine], in that order: 51% and 99%. `C[C@@H](c1ccccc1)N1CCN(CC(=O)c2ccccc2)CC1` [IV-39, N^1-(S-1-phenylethyl)-N^4-phenacyl piperazine]: the “Analgesia (inhibition ratio of writhing)” value in data set [1] is 42%. Besides, the Sedation in data set [2] is given as 35%. Turning to `Cc1ccc(C(=O)CN2CCN([C@H](C)c3ccccc3)CC2)cc1` [IV-41, N^1—(R-1-phenylethyl)-N^4-(4-methylphenacyl)piperazine], the inhibition in vivo at 20 mg/kg turned out to be 60% in data set [1] and 72% in data set [2]. `Cc1ccc(C(=O)CN2CCN([C@@H](C)c3ccccc3)CC2)cc1` [IV-42, N^1-(S-1-phenylethyl)-N^4-(4-methylphenacyl)piperazine]: the “Analgesia (inhibition ratio of writhing)” value in data set [1] is 44%. In data set [2], the Sedation was 0%.

Take `COc1ccc2cc(C(=O)C(C)N3CCN(C(C)c4ccccc4)CC3)ccc2c1Cl` (stereo not shown) [IV-43, N^1-(1-phenylethyl)-N^4-[1-(5-chloro-6-methoxy-2-naphthoyl)ethyl]piperazine]: the inhibition in vivo at 20 mg/kg in data set [1] was 42%; in data set [2], 4%. For `CC(C(=O)c1ccccc1)N1CCN(Cc2ccc([N+](=O)[O-])cc2)CC1` (stereo not shown) [IV-47, N^1-(4-nitrobenzyl)-N^4-(1-benzoylethyl)piperazine], in that order: 28.8% and 26.4%. For `CC(=O)Nc1ccc(C(=O)CN2CCN(Cc3ccccc3)CC2)cc1` [IV-55, N^1-benzyl-N^4-(4-acetamidophenacyl)piperazine], in that order: 21% and 52%. `O=C(CN1CCN(Cc2cccc3ccccc23)CC1)c1ccccc1` [IV-58, N^1-(1-naphthalenylmethyl)-N^4-phenacyl piperazine]: the “Analgesia (inhibition ratio of writhing)” value in data set [1] is on record as 49%. Besides, the Sedation in data set [2] is given as 32%.

Turning to `O=C(CN1CCN(Cc2ccc3ccccc3c2)CC1)c1ccccc1` [IV-59, N^1-(2-naphthalenylmethyl)-N^4-phenacyl piperazine], the inhibition in vivo at 20 mg/kg in data set [1] stood at 45%; in data set [2] it was 0%. On to `CC(c1ccc([N+](=O)[O-])cc1)N1CCN(CC(=O)c2ccccc2)CC1` (stereo not shown) [IV-60, N^1-[1-(4-nitrophenyl)ethyl]-N^4-phenacyl piperazine], for which the inhibition in vivo at 20 mg/kg turned out to be 37% in data set [1] and 66% in data set [2]. For `CCC(c1ccccc1)N1CCN(CC(=O)c2ccccc2)CC1` (stereo not shown) [IV-61, N^1-(1-phenylpropyl)-N^4-phenacyl piperazine], in that order: 6% and 56%.

Regarding `O=C(CN1CCN(Cc2ccc([N+](=O)[O-])cc2)CC1)NCc1ccccc1` [IV-62, N^1-(4-nitrobenzyl)-N^4-[2-(benzylamino)-2-oxo-ethyl]piperazine], the inhibition in vivo at 20 mg/kg was found to be 64% in data set [1] and 42% in data set [2].
